According to patent US10106523B2, “Amide compound” (ASTELLAS PHARMA INC., priority 2014, dated 2018):

Legend:
rat EP1 receptor = target: T1, rat EP1 receptor (Rattus norvegicus, UniProt P70597); test: Selectivity test: antagonistic action on rat EP1 receptor (intracellular Ca2+, HEK-293 cells); format: cell-based; conditions: PGE2 100 nmol/L, HEK-293 cells stably expressing rat EP1; read-out: Concentration up to which no inhibitory action of 50% or more on the increase in intracellular Ca2+ concentration due to PGE2 through the rat EP1 receptor
T1 construct: expressed in transfected cells
T1 sequence (P70597 1-405): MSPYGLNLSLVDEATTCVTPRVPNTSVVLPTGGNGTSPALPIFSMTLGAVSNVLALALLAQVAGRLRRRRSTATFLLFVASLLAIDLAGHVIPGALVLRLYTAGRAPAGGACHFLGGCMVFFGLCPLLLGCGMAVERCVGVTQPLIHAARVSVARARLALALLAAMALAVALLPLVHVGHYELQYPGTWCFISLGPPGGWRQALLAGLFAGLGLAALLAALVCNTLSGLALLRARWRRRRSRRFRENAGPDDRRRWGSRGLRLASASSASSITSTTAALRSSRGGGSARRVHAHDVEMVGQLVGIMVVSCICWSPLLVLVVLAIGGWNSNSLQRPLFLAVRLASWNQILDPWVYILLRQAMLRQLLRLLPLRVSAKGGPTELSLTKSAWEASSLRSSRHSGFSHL
Procedure: Test Example 9: Evaluation Test of Receptor Antagonistic Action on Rat EP1/EP2/EP3 Receptor (Selectivity Test)
The antagonistic action of Compound A on other subtypes ([…], EP2, and EP3) of the rat-derived PGE2 receptor was evaluated. For EP1 and EP3, the intracellular Ca^2+ amount was used as an indicator, and for EP2, the intracellular cAMP amount was used as an indicator, so as to investigate the action of the test compound.
Construction of Rat EP1, EP2, or EP3 Receptor Expressing Vector: A rat EP1 receptor gene (GenBank accession No.: D88751.1), a rat EP2 receptor gene (GenBank accession No.: NM_031088.1), or a rat EP3 receptor gene (GenBank accession No.: NM_012704.1) were inserted respectively into an expression vector pcDNA3.1-V5-His-TOPO (Invitrogen Inc.).
Construction of Cell Stably Expressing Rat EP1, EP2, or EP3 Receptor: […]
The intracellular Ca^2+ concentration was measured using FLIPR tetra (Molecular Devices, LLC.) with the fluorescence intensity of the Dye as an indicator. […] By taking the Ca^2+ concentration when PGE2 was added to a final concentration of 100 nmol/L as 100%, and taking the Ca^2+ concentration when PGE2 was not added as 0%, the Ca^2+ concentration in percentage with a treatment with the compound was calculated.

[1] = test system: db/db mice with type 2 diabetes; test: Effect on albumin in urine of db/db mice with type 2 diabetes; format: in vivo, mouse; conditions: 0.3 mg/kg po once per day for one week
Procedure: Test Example 7: Test for Investigation of Effect on Albumin in Urine of db/db Mice with Type 2 Diabetes
db/db Mice (male, 8-week old) with type 2 diabetes were used for the test. The albumin concentrations in urine samples obtained by urine collection for 24 hours were measured by an ELISA method using an anti-mouse albumin antibody (RAM/Alb/7S, Nordic Immunology), and the creatinine concentration in urine was measured using CRE-EN Kainos (Kainos Co., Ltd.). The albumin-creatinine ratio (ACR) in urine was calculated, and a group (n=12) not treated with the test compound and a group (n=12) treated with the test compound were allocated without a bias in ACR. The test compound suspended in a 0.5% methyl cellulose (MC) solution was orally administered to the group treated with the test compound at a dose of 0.3 mg/kg once per day for one week (10 mL/kg). […] Urine was collected for 24 hours from the completion of the final administration, and using the calculated ACR as an indicator, the improvement effect of the test compound on the early nephropathy of the mice with type 2 diabetes was investigated. The inhibitory rate of ACR of the group treated with the test compound by taking the ACR value of the group not treated with the test compound as 100% was determined.

In the case of `Cc1nn(Cc2cc3ccccc3cn2)c(C(=O)N[C@@H](C)c2ccc(C(=O)O)cc2)c1Br` [Compound A, 4-[(1S)-1-({[4-bromo-1-(isoquinolin-3-ylmethyl)-3-methyl-1H-pyrazol-5-yl]carbonyl}amino)ethyl]benzoic acid], the IC50 (rat EP1 receptor) is reported as greater than 10 µM and the “Inhibitory rate of ACR (albumin-creatinine ratio in urine)” value [1] is reported as 44%.
